Measurements as given in article PMC6360136 (Investigational new drugs, 2018).
pIC50: −log10 of the molar value. Where a name gives a salt, the structure may show the parent alone.

Tests used:
[1] = tested on: colon cancer xenograft; details: colon cancer xenograft mice model, 0.25 mg/kg daily dosing ref 18, 19; cited from earlier work
[2] = tested on: PANC-1 cells; assay: Cell viability assay; type: cell-based, human; details: Homo sapiens, PANC-1, 48 h
[3] = tested on: EC68 cells; assay: Cell viability assay; type: cell-based, human; details: Homo sapiens, Pancreatic cancer cell, 48 h
[4] = tested on: EC46 cells; assay: Cell viability assay; type: cell-based, human; details: Homo sapiens, Pancreatic cancer cell, 48 h

Row | SMILES | tumor growth [1] | pIC50 [2] | pIC50 [3] | pIC50 [4]
1 | CC[C@H](C)[C@H]1C(=O)N2CCC[C@@H]2C(=O)O[C@H](C(C)(C)C)C[C@@H](C)C[C@H](O)C(C)(C)C2=N[C@@H](CCC(=O)N[C@@H](Cc3ccc(OC)cc3)C(=O)N(C)[C@@H](C)C(=O)N1C)CS2 [Apratoxin S8, apratoxin S8] | significantly retarded tumor growth | – | – | –
2 | C#Cc1cccc(Nc2ncnc3cc(OCCOC)c(OCCOC)cc23)c1 [erlotinib hydrochloride, reference compound] | – | 4.88 | 5.05 | 5.62
